Data: US11780840B2 (Incyte Corporation, priority 2020, dated 2023)

Tests used:
[1] = biological target: T1, catalytic domain (JH1, amino acids 826-1132) of human JAK2 (Homo sapiens, UniProt O60674); experiment: JAK2 LanthaScreen JH1 Binding Assay; conditions: JAK2 JH1 (1.5 nM), 50 nM fluorescent JAK2-JH1 tracer, 2 hours at 25° C.; read-out: JH1 BIND
T1 construct: catalytic domain (JH1, amino acids 826-1132) of human JAK2; FLAG (N); purchased Carna Biosciences 08-445-20N; host or cells: baculovirus expression system
T1 sequence (O60674 826-1132): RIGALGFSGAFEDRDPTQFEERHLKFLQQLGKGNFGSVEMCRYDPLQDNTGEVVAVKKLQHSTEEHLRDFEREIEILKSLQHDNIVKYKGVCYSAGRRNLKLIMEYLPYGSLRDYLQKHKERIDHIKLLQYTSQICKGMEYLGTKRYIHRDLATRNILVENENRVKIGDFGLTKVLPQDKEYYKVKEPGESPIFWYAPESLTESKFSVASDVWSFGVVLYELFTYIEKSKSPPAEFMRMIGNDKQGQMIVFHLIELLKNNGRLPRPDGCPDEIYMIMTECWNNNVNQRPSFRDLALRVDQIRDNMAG
Description: Example A. JAK2 LanthaScreen JH1 Binding Assay
JAK2 JH1 binding assay utilizes catalytic domain (JH1, amino acids 826-1132) of human JAK2 expressed as N-terminal FLAG-tagged, biotinylated protein in a baculovirus expression system (Carna Biosciences, Product #08-445-20N). The assay was conducted in black 384-well polystyrene plates in a final reaction volume of 20 μL. JAK2 JH1 (1.5 nM) was incubated with compounds (100 nL serially diluted in DMSO) in the presence of 50 nM fluorescent JAK2-JH1 tracer and 0.5 nM Streptavidin-Tb cryptate (Cisbio Part #610SATLB) in assay buffer (50 mM Tris, pH=7.5, 10 mM MgCl2, 0.01% Brij-35, 0.1% BSA, 1 mM EGTA, 5% Glycerol and 5 mM DTT). Non-specific binding was accessed in the presence of 2 mM ATP. After incubation for 2 hours at 25° C., LanthaScreen signals were read on a PHERAstar FS plate reader (BMG LABTECH). Data was analyzed with IDBS XLfit and GraphPad Prism 5.0 software using a four parameter dose response curve to determine IC50 for each compound.

[2] = biological target: T2, pseudo-kinase domain (JH2, amino-acids 536-812 with 3 surface mutations W659A, W777A, F794H) of human V617F mutant JAK2 (Homo sapiens, UniProt O60674, F794H/V617F/W659A/W777A); experiment: JAK2 LanthaScreen JH2-V617F Binding Assay; conditions: JAK2 JH2-V617F (0.26 nM), 50 nM Fluorescent JAK2-JH2 Tracer, 1 hour at 25° C.; read-out: JH2 BIND V617F
T2 construct: pseudo-kinase domain (JH2, amino-acids 536-812 with 3 surface mutations W659A, W777A, F794H); His (C); Avi (biotinylated) (C); purchased BPS Bioscience 79498; host or cells: baculovirus expression system
T2 sequence (O60674 536-812 V617F/W659A/W777A/F794H): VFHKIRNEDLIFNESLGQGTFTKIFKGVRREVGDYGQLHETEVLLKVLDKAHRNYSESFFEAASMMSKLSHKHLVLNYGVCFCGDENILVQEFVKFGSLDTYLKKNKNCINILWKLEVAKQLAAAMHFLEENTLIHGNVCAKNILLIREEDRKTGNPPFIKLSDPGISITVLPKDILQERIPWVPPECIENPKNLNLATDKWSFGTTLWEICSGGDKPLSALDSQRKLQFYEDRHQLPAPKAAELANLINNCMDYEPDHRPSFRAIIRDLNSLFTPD
Description: Example C. JAK2 LanthaScreen JH2-V617F Binding Assay
(§1) JAK2 JH2-V617F binding assay utilizes pseudo-kinase domain (JH2, amino-acids 536-812 with 3 surface mutations W659A, W777A, F794H) of human V617F mutant JAK2 expressed as C-terminal His-Avi-tagged, biotinylated protein in a baculovirus expression system (BPS Bioscience, Catalog #79498). The assay was conducted in black 384-well polystyrene plates in a final reaction volume of 20 μL. JAK2 JH2-V617F (0.26 nM) was incubated with compounds (100 nL serially diluted in DMSO) in the presence of 50 nM Fluorescent JAK2-JH2 Tracer (MedChem Express Catalog #HY-102055) and 0.25 nM Streptavidin-Tb cryptate (Cisbio Part #610SATLB) in assay buffer (50 mM Tris, pH=7.5, 10 mM MgCl2, 0.01% Brij-35, 0.1% BSA, 1 mM EGTA, 5% Glycerol and 5 mM DTT). Non-specific binding was accessed in the presence of 2 mM ATP. After incubation for 1 hour at 25° C., LanthaScreen signals were read on a PHERAstar FS plate reader (BMG LABTECH). Data was analyzed with IDBS XLfit and GraphPad Prism 5.0 software using a four parameter dose response curve to determine IC50 for each compound.

[3] = biological target: T3, pseudo-kinase domain (JH2, amino-acids 536-812 with 3 surface mutations W659A, W777A, F794H) of human Wild Type JAK2 (Homo sapiens, UniProt O60674, F794H/W659A/W777A); experiment: JAK2 LanthaScreen JH2-WT Binding Assay; conditions: JAK2 JH2-WT (0.145 nM), 50 nM Fluorescent JAK2-JH2 Tracer, 1 hour at 25° C.; read-out: JH2 BIND WT
T3 construct: pseudo-kinase domain (JH2, amino-acids 536-812 with 3 surface mutations W659A, W777A, F794H); His (C); Avi (biotinylated) (C); purchased BPS Bioscience 79463; host or cells: baculovirus expression system
T3 sequence (O60674 536-812 W659A/W777A/F794H): as the sequence (O60674 536-812 V617F/W659A/W777A/F794H) above, with F82V counted along it
Description: Example B. JAK2 LanthaScreen JH2-WT Binding Assay
as §1, with “JH2-WT” for “JH2-V617F”, “Wild Type” for “V617F mutant”, “#79463).” for “#79498).”, “JH2-WT (0.145” for “JH2-V617F (0.26”

| SMILES | IC50 [1] [nM] | IC50 [2] [nM] | IC50 [3] [nM] |
| --- | --- | --- | --- |
| CCN1CCN(c2ccc(-c3cc4c(ncc5c4n(CC(=O)N4CCCCC4)c(=O)n5C)[nH]3)cc2)CC1 [Example 17, 7-(4-(4-Ethylpiperazin-1-yl)phenyl)-3-methyl-1-(2-oxo-2-(piperidin-1-yl)ethyl)-3,6-dihydroimidazo[4,5-d]pyrrolo[2,3-b]pyridin-2(1H)-one] | > 1000 | > 1000 | > 1000 |
| CC(C)n1c(=O)n(C)c2cnc3[nH]c(-c4ccc(CN5CCC(S(C)(=O)=O)CC5)cc4)c(-c4ccccc4)c3c21 [Example 18, 1-Isopropyl-3-methyl-7-(4-((4-(methylsulfonyl)piperidin-1-yl)methyl)phenyl)-8-phenyl-3,6-dihydroimidazo[4,5-d]pyrrolo[2,3-b]pyridin-2(1H)-one] | 100 to 500 | ≤ 10 | ≤ 10 |
| COc1ccc(-c2c(-c3ccc(CN4CCC(S(C)(=O)=O)CC4)cc3)[nH]c3ncc4c(c23)n(C2CCCCC2)c(=O)n4C)cc1 [Example 19, 1-Cyclohexyl-8-(4-methoxyphenyl)-3-methyl-7-(4-((4-(methylsulfonyl)piperidin-1-yl)methyl)phenyl)-3,6-dihydroimidazo [4,5-d]pyrrolo[2,3-b]pyridin-2(1H)-one] | 10 to 100 | ≤ 10 | ≤ 10 |
| COc1ccc(-c2c(-c3ccc(CN4CCC(S(C)(=O)=O)CC4)cc3)[nH]c3ncc4c(c23)n(CC(C)C)c(=O)n4C)cc1 [Example 20, 1-Isobutyl-8-(4-methoxyphenyl)-3-methyl-7-(4-((4-(methylsulfonyl)piperidin-1-yl)methyl)phenyl)-3,6-dihydroimidazo [4,5-d]pyrrolo[2,3-b]pyridin-2(1H)-one] | 100 to 500 | ≤ 10 | ≤ 10 |
| COc1ccc(-c2c(-c3ccc(CN4CCC(S(C)(=O)=O)CC4)cc3)[nH]c3ncc4c(c23)n(C2CCC2)c(=O)n4C)cc1 [Example 21, 1-Cyclobutyl-8-(4-methoxyphenyl)-3-methyl-7-(4-((4-(methylsulfonyl)piperidin-1-yl)methyl)phenyl)-3,6-dihydroimidazo [4,5-d]pyrrolo [2,3-b]pyridin-2(1H)-one] | 100 to 500 | ≤ 10 | ≤ 10 |
| COc1ccc(-c2c(-c3ccc(CN4CCC(S(C)(=O)=O)CC4)cc3)[nH]c3ncc4c(c23)n(-c2ccccc2)c(=O)n4C)cc1 [Example 22, 8-(4-Methoxyphenyl)-3-methyl-7-(4-((4-(methylsulfonyl)piperidin-1-yl)methyl)phenyl)-1-phenyl-3,6-dihydroimidazo[4,5-d]pyrrolo[2,3-b]pyridin-2(1H)-one] | 100 to 500 | 10 to 100 | 10 to 100 |
| COc1ccc(-c2c(-c3ccc(CN4CCC(S(C)(=O)=O)CC4)cc3)[nH]c3ncc4c([nH]c(=O)n4C)c23)cc1 [Example 23, 8-(4-Methoxyphenyl)-3-methyl-7-(4-((4-(methylsulfonyl)piperidin-1-yl)methyl)phenyl)-3,6-dihydroimidazo[4,5-d]pyrrolo[2,3-b]pyridin-2(1H)-one] | 100 to 500 | 100 to 500 | 10 to 100 |
| COC1CC=C(c2c(-c3ccc(CN4CCC(S(C)(=O)=O)CC4)cc3)[nH]c3ncc4c(c23)n(C(C)(C)C)c(=O)n4C)CC1 (stereo not drawn) [Example 24, 1-(tert-Butyl)-8-(4-methoxycyclohex-1-en-1-yl)-3-methyl-7-(4-((4-(methylsulfonyl)piperidin-1-yl)methyl)phenyl)-3,6-dihydroimidazo[4,5-d]pyrrolo[2,3-b] pyridin-2(1H)-one] | 500 to 1000 | ≤ 10 | ≤ 10 |
| CC(C)n1c(=O)n(C)c2cnc3[nH]c(-c4ccc(CN5CCC(S(C)(=O)=O)CC5)cc4)c(-c4ccc(C#N)cc4)c3c21 [Example 25, 4-(1-Isopropyl-3-methyl-7-(4-((4-(methylsulfonyl)piperidin-1-yl)methyl)phenyl)-2-oxo-1,2,3,6-tetrahydroimidazo [4,5-d]pyrrolo[2,3-b]pyridin-8-yl)benzonitrile] | 500 to 1000 | ≤ 10 | ≤ 10 |
| CC(C)n1c(=O)n(C)c2cnc3[nH]c(-c4ccc(CN5CCC(S(C)(=O)=O)CC5)cc4)c(-c4ccc(C5(C#N)CC5)cc4)c3c21 [Example 26, 1-(4-(1-Isopropyl-3-methyl-7-(4-((4-(methylsulfonyl)piperidin-1-yl)methyl)phenyl)-2-oxo-1,2,3,6-tetrahydroimidazo [4,5-d]pyrrolo[2,3-b]pyridin-8-yl)phenyl) cyclopropane-1-carbonitrile] | > 1000 | ≤ 10 | ≤ 10 |
| CC(C)n1c(=O)n(C)c2cnc3[nH]c(-c4ccc(CN5CCC(S(C)(=O)=O)CC5)cc4)c(-c4cnn(Cc5ccc(C(=O)O)cc5)c4)c3c21 [Example 27, 4-((4-(1-Isopropyl-3-methyl-7-(4-((4-(methylsulfonyl)piperidin-1-yl)methyl)phenyl)-2-oxo-1,2,3,6-tetrahydroimidazo [4,5-d]pyrrolo[2,3-b]pyridin-8-yl)-1H-pyrazol-1-yl)methyl)benzoic acid] | 100 to 500 | ≤ 10 | ≤ 10 |
| Cn1c(=O)n(C2CCCC2)c2c3c(-c4ccccc4)c(-c4ccc(CN5CCC(S(C)(=O)=O)CC5)cc4)[nH]c3ncc21 [Example 28, 1-Cyclopentyl-3-methyl-7-(4-((4-(methylsulfonyl)piperidin-1-yl)methyl)phenyl)-8-phenyl-3,6-dihydroimidazo[4,5-d]pyrrolo[2,3-b]pyridin-2(1H)-one] | 100 to 500 | ≤ 10 | ≤ 10 |
| Cn1c(=O)n(C2CCCC2)c2c3c(-c4ccccc4)c(-c4cnn(CS(C)(=O)=O)c4)[nH]c3ncc21 [Example 29, 1-Cyclopentyl-3-methyl-7-(1-((methylsulfonyl)methyl)-1H-pyrazol-4-yl)-8-phenyl-3,6-dihydroimidazo[4,5-d]pyrrolo[2,3-b]pyridin-2(1H)-one] | 100 to 500 | ≤ 10 | ≤ 10 |
| Cn1c(=O)n(C2CCCC2)c2c3c(-c4ccc(C5(C#N)CC5)cc4)c(-c4ccc(CN5CCC(S(C)(=O)=O)CC5)cc4)[nH]c3ncc21 [Example 30, 1-(4-(1-Cyclopentyl-3-methyl-7-(4-((4-(methylsulfonyl)piperidin-1-yl)methyl)phenyl)-2-oxo-1,2,3,6-tetrahydroimidazo [4,5-d]pyrrolo[2,3-b]pyridin-8-yl)phenyl)cyclo-propane-1-carbonitrile] | 100 to 500 | ≤ 10 | ≤ 10 |
